Values of other authors, collected in publication PMC9387934, “Randomized single oral dose phase 1 study of safety, tolerability, and pharmacokinetics of Iminosugar UV-4 Hydrochloride (UV-4B) in healthy subjects” (PLoS Neglected Tropical Diseases, 2022).

What was measured:
[1] = doses of 100 mg TID or less; cited from earlier work
[2] = set-up: method as in Zavesca SmPC; details: ref Zavesca SmPC; cited from earlier work
[3] = dogs, 105 mg/kg/day given over 4 weeks; cited from earlier work
[4] = set-up: method as in FDA Advisory Briefing Book for Miglustat; details: humans, doses of up to 1000 mg TID; ref FDA Advisory Briefing Book for Miglustat; cited from earlier work
[5] = healthy male subjects; cited from earlier work
[6] = 300 mg BID; grade 3 transaminase, CK, and LDH elevations; cited from earlier work
[7] = 212 obese patients treated for 36 months; cited from earlier work
[8] = 1108 patients, average of 6 months; cited from earlier work

CCCCN1C[C@H](O)[C@@H](O)[C@H](O)[C@H]1CO [miglustat, N-butyl-Deoxynojirimycin]
Association with AST and ALT elevations [1]: does not appear to be associated | NOAEL [2]: 20 mg/kg | Neurologic findings [3]: tremor and reduction or absence of corneal reflexes | Histamine-like findings as seen in rats [4]: no similar findings | AST elevations [5]: no AST elevations

CCCC(=O)O[C@H]1CN2CC[C@H](O)[C@@H]2[C@@H](O)[C@@H]1O [Celgosivir]
Outcome of safety and tolerability study [6]: prematurely discontinued

C[C@H]1O[C@H](O[C@H]2[C@H](O)[C@@H](O)[C@@H](O[C@H]3[C@H](O)[C@@H](O)C(O)O[C@@H]3CO)O[C@@H]2CO)[C@H](O)[C@@H](O)[C@@H]1N[C@H]1C=C(CO)[C@@H](O)[C@H](O)[C@H]1O (some centres unmarked) [acarbose]
ALT elevations, share of patients [7]: 9% | Rates of ALT elevations versus placebo [8]: no different
